{"source": "paper PMC8226449", "about": "“In Vitro Evaluation of the Squaramide-Conjugated Fibroblast Activation Protein Inhibitor-Based Agents AAZTA^5.SA.FAPi and DOTA.SA.FAPi” (Molecules, 2021)", "origin": "cited, not measured here", "parameters": "method as in PMID 32332144", "conditions": "reported in the literature; cited from earlier work"}
{"smiles": "N#C[C@@H]1CC(F)(F)CN1C(=O)CNC(=O)c1ccnc2ccc(OCCCN3CCN(C(=O)CN4CCN(CC(=O)O)CCN(CC(=O)O)CCN(CC(=O)O)CC4)CC3)cc12", "note": "(68Ga complex, metal not drawn) [FAPI-04]", "values": [{"measurement": "logD", "value": "−2.4 ± 0.28"}]}
